Converted amounts (≈) assume the structure as drawn. “And” between values parts separate entries of the source, which are not always exact repeats. Identical values can stand only once. “Also recorded” adds a separate entry of the source.
Columns and labels:
[1] = tested on: 54 human transporters and receptors; assay: In vitro safety pharmacology profiling, whole panel; format: binding
Protocol: The study was carried out by Cerep (Celle l'Evescault, France). An in vitro pharmacological profiling panel was designed to detect potential high-risk clinical adverse drug reactions. The panel comprised of 54 targets.
The specific ligand binding to the receptors was defined as the difference between the total binding and the non-specific binding determined in the presence of an excess of unlabelled ligand. Results were expressed as a per cent of control specific binding and as a per cent inhibition of control specific obtained in the presence of the test compounds. Results showing an inhibition (or stimulation) >50% were considered to represent significant effects of the test compounds. […] The IC50 values were determined by non-linear regression analysis of the competition curves generated with mean replicate values using Hill equation curve fitting. The inhibition constants (Ki) were calculated using the Cheng Prusoff equation.

Y1 (h) = target: T1, Y1 (h) (Homo sapiens, UniProt P25929); assay: Radioligand binding
T1 construct: Cerep

GABA (non-selective) = assay: Radioligand binding
5-HT7 (h) = target: T2, 5-HT7 (h) (Homo sapiens, UniProt P34969); assay: Radioligand binding
T2 construct: Cerep (contract screening)

Ames test = conditions: 50 μM
human T-cells = assay: Cytotoxicity; conditions: 50 μM
CYP1A2 = CYP1A2 (Homo sapiens, UniProt P05177); assay: CYP inhibition, human liver microsomes; conditions: CYP1A2, melatonin to 6-OH-melatonin, 10 µM
[2] = tested on: synchronized Dd2 rings, trophozoites, schizonts; assay: Stage-specific activity, 6 h exposure, [3H] hypoxanthine; format: cell-based; conditions: Plasmodium falciparum, DD2, 6 h
[3] = Solubility in phosphate buffer; format: physicochemical
Protocol: SC81458 and SC83288 were soluble in water (890 and 940 μg ml^−1, respectively) and organic solvents. […] The compounds were stable in different physiological solutions, including artificial gastric juice, simulated intestinal fluid, phosphate-buffered saline and human plasma, when incubated for 6 h at 37 °C.

Na+ channel (site 2) = assay: Radioligand binding
A3 (h) = target: T3, A3 (h) (Homo sapiens, UniProt P0DMS8); assay: Radioligand binding
T3 construct: Cerep (contract study)

Plasmodium vinckei = assay: Rodent malaria model; format: in vivo
Description: The two SC compounds were also active in the Plasmodium vinckei rodent malaria model system.

[4] = In vitro metabolism in liver microsomes; conditions: dog liver microsomes, 10 μM
[5] = target: T4, norepinephrine transporter (h) (Homo sapiens, UniProt P23975); assay: Radioligand binding
T4 construct: Cerep (contract screening)

P. falciparum strain Dd2 = assay: Growth inhibition assay, asexual blood stages; format: cell-based, Plasmodium falciparum; conditions: for IC90: Plasmodium falciparum, DD2, 72 h; for absolute Hill coefficient: in vitro growth inhibition curves
[6] = tested on: cytoplasmic free Ca2+ in P. falciparum HB3 trophozoites; assay: Ca2+ live imaging, Fluo-4; conditions: SC compounds 10 and 20 μM; CPA 10 μM
[7] = tested on: P. falciparum strain Thai19; assay: Growth inhibition assay; format: cell-based; conditions: Plasmodium falciparum
Cl- channel (GABA-gated) = assay: Radioligand binding
5-HT1A (h) = target: T5, 5-HT1A (h) (Homo sapiens, UniProt P08908); assay: Radioligand binding
T5 construct: Cerep

[8] = tested on: 13 human cytochrome P450 enzymes; assay: Inhibition of cytochrome P450 enzymes, whole panel; conditions: 10 μM
5-HT6 (h) = target: T6, 5-HT6 (h) (Homo sapiens, UniProt P50406); assay: Radioligand binding
T6 construct: Cerep (contract screening)

m (MOP) (h) = target: T7, m (MOP) (h) (Homo sapiens, UniProt P35372); assay: Radioligand binding
T7 construct: Cerep

CYP2C9 = CYP2C9 (Homo sapiens, UniProt P11712); assay: CYP inhibition, human liver microsomes; conditions: CYP2C9, tolbutamide to OH-tolbutamide, 10 µM
D2S (h) = target: T8, D2S (h) (Homo sapiens, UniProt P14416); assay: Radioligand binding
T8 construct: Cerep

P. falciparum strain K1 = assay: microbe, parasite or virus in culture; format: cell-based; conditions: Plasmodium falciparum
Permeability assay = format: in vitro ADME; conditions: human; CACO 2 cells, 10 μM, apical side, 2 h
Protocol: The study was conducted by Cyprotex (Macclesfield, United Kingdom). CACO 2 cells (Sigma-Aldrich, catalogue: 86010202) were seeded on Millipore Millicell plates and formed a confluent monolayer over 20 days before the experiment. On day 20, the tested compounds at a final concentration of 10 μM were added to the apical side of the membrane. The transport of the compound across the monolayer was monitored over a 2 h period by liquid chromatography (LC)–MS/MS quantification. The permeability coefficient (Papp) was calculated from the following equation: [drawing 1] , where dQ/dt is the rate of permeation of the drug across the cells, C0 the donor compartment concentration at time zero and A the area of the cell monolayer. C0 was obtained from analysis of the dosing solution at the start of the experiment.

Y2 (h) = target: T9, Y2 (h) (Homo sapiens, UniProt P49146); assay: Radioligand binding
T9 construct: Cerep

[9] = In vitro metabolism in liver microsomes; conditions: monkey liver microsomes, 10 μM
5-HT1B = target: T10, 5-HT1B (Rattus norvegicus, UniProt P28564); assay: Radioligand binding
T10 construct: Cerep (contract screening)

CCK1 (CCKA) (h) = target: T11, CCK1 (CCKA) (h) (Homo sapiens, UniProt P32238); assay: Radioligand binding
T11 construct: Cerep (contract study)

[10] = P. vinckei, 30 mg kg-1 i.p. 1x4 days

T8 sequence (P14416 1-414 isoform P14416-2): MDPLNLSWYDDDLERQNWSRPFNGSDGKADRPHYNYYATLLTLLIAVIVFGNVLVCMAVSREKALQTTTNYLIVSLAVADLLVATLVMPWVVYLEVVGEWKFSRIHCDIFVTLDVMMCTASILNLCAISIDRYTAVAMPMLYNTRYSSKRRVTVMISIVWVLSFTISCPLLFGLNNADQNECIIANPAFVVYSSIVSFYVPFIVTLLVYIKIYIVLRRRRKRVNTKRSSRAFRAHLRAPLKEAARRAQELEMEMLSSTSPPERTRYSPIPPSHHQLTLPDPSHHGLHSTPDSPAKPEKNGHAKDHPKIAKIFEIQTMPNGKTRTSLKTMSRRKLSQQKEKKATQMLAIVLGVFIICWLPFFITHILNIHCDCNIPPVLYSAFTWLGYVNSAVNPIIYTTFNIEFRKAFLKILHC
T7 sequence (P35372 whole entry): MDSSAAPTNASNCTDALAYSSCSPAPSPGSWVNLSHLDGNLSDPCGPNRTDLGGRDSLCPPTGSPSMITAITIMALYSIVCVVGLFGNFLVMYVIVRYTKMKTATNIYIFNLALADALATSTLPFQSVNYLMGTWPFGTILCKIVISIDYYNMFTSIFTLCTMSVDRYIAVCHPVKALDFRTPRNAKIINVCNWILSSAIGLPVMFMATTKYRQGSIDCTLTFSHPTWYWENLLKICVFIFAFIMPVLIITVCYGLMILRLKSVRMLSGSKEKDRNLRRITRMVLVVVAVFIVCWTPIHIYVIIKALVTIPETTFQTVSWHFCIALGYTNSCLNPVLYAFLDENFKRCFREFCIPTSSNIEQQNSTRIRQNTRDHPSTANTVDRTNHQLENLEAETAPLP
T2 sequence (P34969 whole entry): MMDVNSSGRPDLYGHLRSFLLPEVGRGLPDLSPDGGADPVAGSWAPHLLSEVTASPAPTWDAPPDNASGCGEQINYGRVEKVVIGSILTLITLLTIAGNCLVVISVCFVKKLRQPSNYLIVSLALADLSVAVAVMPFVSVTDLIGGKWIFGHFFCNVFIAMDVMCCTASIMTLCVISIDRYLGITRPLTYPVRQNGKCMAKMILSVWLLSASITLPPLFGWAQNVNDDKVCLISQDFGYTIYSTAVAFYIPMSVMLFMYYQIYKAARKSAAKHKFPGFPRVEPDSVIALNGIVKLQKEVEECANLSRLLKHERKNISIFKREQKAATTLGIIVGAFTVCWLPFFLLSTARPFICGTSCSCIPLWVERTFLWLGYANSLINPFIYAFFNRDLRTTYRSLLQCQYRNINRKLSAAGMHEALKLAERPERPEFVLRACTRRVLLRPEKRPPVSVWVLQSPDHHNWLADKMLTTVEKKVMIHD
T1 sequence (P25929 whole entry): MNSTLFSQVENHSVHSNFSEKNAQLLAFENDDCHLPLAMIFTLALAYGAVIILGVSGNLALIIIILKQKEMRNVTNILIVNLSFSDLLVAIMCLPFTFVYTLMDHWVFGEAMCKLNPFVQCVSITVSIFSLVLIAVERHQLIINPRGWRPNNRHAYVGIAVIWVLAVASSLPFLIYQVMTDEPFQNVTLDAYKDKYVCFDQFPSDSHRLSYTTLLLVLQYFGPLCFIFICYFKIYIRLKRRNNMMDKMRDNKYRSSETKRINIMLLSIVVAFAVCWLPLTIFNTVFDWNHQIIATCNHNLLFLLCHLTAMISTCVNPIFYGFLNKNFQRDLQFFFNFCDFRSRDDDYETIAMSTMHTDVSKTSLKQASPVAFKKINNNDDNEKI
T10 sequence (P28564 whole entry): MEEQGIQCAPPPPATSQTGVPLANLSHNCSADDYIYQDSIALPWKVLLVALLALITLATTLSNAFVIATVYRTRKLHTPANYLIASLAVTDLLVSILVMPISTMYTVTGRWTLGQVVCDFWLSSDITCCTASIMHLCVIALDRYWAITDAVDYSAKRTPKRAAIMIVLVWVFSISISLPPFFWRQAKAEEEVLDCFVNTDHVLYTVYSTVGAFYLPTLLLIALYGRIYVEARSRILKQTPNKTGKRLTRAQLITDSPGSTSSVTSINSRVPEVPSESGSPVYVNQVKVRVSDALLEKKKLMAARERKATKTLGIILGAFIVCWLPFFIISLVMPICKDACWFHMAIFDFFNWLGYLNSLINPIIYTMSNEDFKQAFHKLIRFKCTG
T3 sequence (P0DMS8 whole entry): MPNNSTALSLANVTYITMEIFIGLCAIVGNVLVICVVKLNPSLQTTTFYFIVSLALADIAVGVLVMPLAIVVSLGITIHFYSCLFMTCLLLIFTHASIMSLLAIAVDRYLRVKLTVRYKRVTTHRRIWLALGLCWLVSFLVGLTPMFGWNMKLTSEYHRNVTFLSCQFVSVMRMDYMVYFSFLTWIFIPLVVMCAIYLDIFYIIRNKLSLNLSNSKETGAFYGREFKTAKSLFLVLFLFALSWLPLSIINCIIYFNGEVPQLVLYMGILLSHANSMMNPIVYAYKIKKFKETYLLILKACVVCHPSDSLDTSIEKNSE
Chain of CYP1A2 (P05177 whole entry): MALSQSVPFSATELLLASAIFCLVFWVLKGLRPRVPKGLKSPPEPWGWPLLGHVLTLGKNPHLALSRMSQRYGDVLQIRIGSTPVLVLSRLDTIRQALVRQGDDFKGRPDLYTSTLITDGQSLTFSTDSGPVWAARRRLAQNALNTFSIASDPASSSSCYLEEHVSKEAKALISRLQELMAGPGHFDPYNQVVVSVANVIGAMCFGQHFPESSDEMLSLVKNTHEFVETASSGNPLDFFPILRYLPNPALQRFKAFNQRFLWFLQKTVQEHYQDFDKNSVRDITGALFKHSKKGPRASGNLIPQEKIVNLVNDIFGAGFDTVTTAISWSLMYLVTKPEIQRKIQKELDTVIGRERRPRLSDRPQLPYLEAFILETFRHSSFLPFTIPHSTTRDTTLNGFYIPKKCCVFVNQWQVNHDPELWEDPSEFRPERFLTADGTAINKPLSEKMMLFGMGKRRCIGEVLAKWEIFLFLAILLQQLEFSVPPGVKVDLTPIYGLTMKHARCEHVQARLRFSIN
Chain of CYP2C9 (P11712 whole entry): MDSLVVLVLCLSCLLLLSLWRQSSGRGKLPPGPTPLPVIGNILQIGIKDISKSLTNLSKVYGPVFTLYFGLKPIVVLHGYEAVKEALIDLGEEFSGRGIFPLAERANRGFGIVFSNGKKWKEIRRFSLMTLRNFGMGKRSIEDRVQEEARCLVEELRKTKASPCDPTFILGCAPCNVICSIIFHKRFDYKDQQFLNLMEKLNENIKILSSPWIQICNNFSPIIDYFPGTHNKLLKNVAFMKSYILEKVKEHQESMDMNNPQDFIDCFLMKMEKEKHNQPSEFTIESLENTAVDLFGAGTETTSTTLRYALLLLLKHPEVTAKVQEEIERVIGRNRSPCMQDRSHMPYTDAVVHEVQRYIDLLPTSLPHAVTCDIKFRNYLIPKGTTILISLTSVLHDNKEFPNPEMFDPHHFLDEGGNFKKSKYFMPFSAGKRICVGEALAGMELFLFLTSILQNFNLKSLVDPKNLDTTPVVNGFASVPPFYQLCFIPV
T9 sequence (P49146 whole entry): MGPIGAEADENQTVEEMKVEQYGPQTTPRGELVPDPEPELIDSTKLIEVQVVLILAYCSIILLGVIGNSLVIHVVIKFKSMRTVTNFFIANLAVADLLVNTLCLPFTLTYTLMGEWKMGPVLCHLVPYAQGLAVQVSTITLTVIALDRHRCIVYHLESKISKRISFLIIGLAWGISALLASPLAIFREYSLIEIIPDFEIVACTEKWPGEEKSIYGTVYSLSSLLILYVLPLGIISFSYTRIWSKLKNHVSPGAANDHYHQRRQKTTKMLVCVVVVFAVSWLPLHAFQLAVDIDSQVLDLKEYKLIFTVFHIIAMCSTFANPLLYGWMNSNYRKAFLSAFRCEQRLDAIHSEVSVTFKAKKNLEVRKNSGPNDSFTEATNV
T6 sequence (P50406 whole entry): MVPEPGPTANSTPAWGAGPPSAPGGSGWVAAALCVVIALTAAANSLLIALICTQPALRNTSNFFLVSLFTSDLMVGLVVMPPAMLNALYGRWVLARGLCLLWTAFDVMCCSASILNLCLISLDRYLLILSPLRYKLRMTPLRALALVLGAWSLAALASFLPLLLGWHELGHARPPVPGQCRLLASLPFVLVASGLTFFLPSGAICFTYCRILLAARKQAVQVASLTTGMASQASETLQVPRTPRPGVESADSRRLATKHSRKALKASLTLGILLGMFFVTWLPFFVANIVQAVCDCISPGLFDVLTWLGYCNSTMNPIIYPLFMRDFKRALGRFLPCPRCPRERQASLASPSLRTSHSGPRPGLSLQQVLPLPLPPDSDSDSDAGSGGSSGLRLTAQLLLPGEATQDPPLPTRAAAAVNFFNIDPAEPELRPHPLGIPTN
T11 sequence (P32238 whole entry): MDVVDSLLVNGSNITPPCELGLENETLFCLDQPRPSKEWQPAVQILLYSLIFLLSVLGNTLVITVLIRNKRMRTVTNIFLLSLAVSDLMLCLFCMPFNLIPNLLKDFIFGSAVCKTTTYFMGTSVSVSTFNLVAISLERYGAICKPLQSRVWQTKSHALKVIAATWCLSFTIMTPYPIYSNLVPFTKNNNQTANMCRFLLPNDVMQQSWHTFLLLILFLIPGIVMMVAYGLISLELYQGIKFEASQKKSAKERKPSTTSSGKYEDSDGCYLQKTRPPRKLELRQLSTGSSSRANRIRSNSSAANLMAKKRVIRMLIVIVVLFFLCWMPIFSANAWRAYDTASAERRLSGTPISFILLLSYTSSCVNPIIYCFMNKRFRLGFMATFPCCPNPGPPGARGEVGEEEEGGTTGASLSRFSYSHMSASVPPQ

Structure (SMILES) | binding potential to 54 human transporters and receptors [1] | Inhibition of control specific binding (Y1 (h)) [%] | Inhibition of control specific binding (GABA (non-selective)) [%] | Inhibition of control specific binding (5-HT7 (h)) [%] | genotoxicity in a reverse Ames test (Ames test) | in vitro propagation / cytotoxicity (human T-cells) | Remaining enzyme activity (CYP1A2) [%] | IC50 ([2]; ring stages) [nM] | IC50 ([2]; schizonts) [nM] | IC50 ([2]; trophozoites) [nM] | solubility ([3]; pH 4, aqueous buffer) [µM] | solubility ([3]; pH 9, aqueous buffer) [µM] | Inhibition of control specific binding (Na+ channel (site 2)) [%] | Inhibition of control specific binding (A3 (h)) [%] | remaining after 60 min of incubation [4] [%] | Inhibition of control specific binding [5] [%] | IC90 (P. falciparum strain Dd2) [nM] | absolute Hill coefficient (P. falciparum strain Dd2) | effect on cytoplasmic free Ca^2+ [6] | IC50 [7] [nM] | also measured
CCCCN1CCN(C(=N)c2cccc(NC(=O)Nc3ccc(S(=O)(=O)NCc4ccc(S(N)(=O)=O)cc4)cc3)c2)CC1 [SC81458, 4-(3-(3-((4-butylpiperazin-1-yl)(imino)methyl)phenyl)ureido)-N-(4-sulfamoylbenzyl) benzenesulfonamide] | low to moderate | 0 | 14 | 19 | no signs of genotoxicity | did not affect | 95 | 5000 ± 1000 | 70 ± 10 | 37 ± 3 | 1800 (≈ 1130 µg/mL) | 400 (≈ 251 µg/mL) | 45 | 0 | 37 | 73 | 18 | 2.6±0.3 | did not affect | 7 ± 1 | parasitemia in treated mice at day 5 (Plasmodium vinckei; 30 mg kg^−1 per day for 4 days): 3.3%; Outcome (Plasmodium vinckei; [10]): rescrudescence; also recorded: all treated mice died of a recrudescent parasitemia; Outcome: decrease of parasitemia (Plasmodium vinckei; [10]): > 90% and 97%; Inhibition of control specific binding (Cl- channel (GABA-gated)): -28%; Inhibition of control specific binding (5-HT1A (h)): 2%; inhibition potential towards 13 human cytochrome P450 enzymes [8]: low; Inhibition of control specific binding (5-HT6 (h)): -2%; Inhibition of control specific binding (m (MOP) (h)): 24%; Remaining enzyme activity (CYP2C9): 104%; Inhibition of control specific binding (D2S (h)): 15%; IC50 (P. falciparum strain K1): 9 ± 3 nM; Papp at 2 h, 10 μM (Permeability assay): 0.76 ×10⁻⁶ cm/s; Inhibition of control specific binding (Y2 (h)): -20%; remaining after 60 min of incubation [9]: almost completely metabolized; Inhibition of control specific binding (5-HT1B): -3%; Inhibition of control specific binding (CCK1 (CCKA) (h)): 0%
COC(=O)N1CCN(C(=N)c2cccc(NC(=O)Nc3ccc(S(=O)(=O)NCc4ccc(S(N)(=O)=O)cc4)cc3)c2)CC1 [SC83288, methyl 4-(imino(3-(3-(4-(N-(4-sulfamoylbenzyl)sulfamoyl)phenyl)ureido)phenyl)methyl) piperazine-1-carboxylate] | low to moderate | 0 | 6 | 4 | no signs of genotoxicity | did not affect | 97 | 3000 ± 1000 | 110 ± 30 | 40 ± 4 | 2600 (≈ 1640 µg/mL) | 800 (≈ 504 µg/mL) | 19 | 0 | 83 | 59 | 8 | 2.6±0.3 | did not affect | 4 ± 1 | Outcome (Plasmodium vinckei; P. vinckei, 20 mg kg-1 i.p. 1x4 days): complete clearance, no recrudescence; also recorded: fully cured the infection; Inhibition of control specific binding (Cl- channel (GABA-gated)): -37%; Inhibition of control specific binding (5-HT1A (h)): 15%; inhibition potential towards 13 human cytochrome P450 enzymes [8]: low; Inhibition of control specific binding (5-HT6 (h)): 11%; Inhibition of control specific binding (m (MOP) (h)): 25%; Remaining enzyme activity (CYP2C9): 103%; Inhibition of control specific binding (D2S (h)): 1%; IC50 (P. falciparum strain K1): 5 ± 1 nM; Papp at 2 h, 10 μM (Permeability assay): 0.42 ×10⁻⁶ cm/s; Inhibition of control specific binding (Y2 (h)): -4%; remaining after 60 min of incubation [9]: 51%; Inhibition of control specific binding (5-HT1B): 6%; Inhibition of control specific binding (CCK1 (CCKA) (h)): -5%
